According to patent US11597722B2, “Crystal form D of pyrazine-2(1H)-ketone compound and preparation method therefor” (ZHANGZHOU PIEN TZE HUANG PHARMACEUTICAL CO., LTD., priority 2019, dated 2023):

Assay: Pharmacokinetics in mice, single gavage
Assay type: in vivo, CD-1 mouse (male)
Conditions: CD-1 mouse, 300 mpk, plasma
Protocol: Experimental purpose: To test the pharmacokinetics of the compound in mice
CD-1 mouse (male), vehicle (0.5% (w/v) methylcellulose 0.5% (v/v) Tween 80 aqueous solution), trifluoroacetate of compound 0027.
The vehicle was an aqueous solution of 0.5% (w/v) methylcellulose and 0.5% (v/v) Tween 80, and it was prepared according to the following procedure:
Formulation of preparations for intragastric administration: […]
a. An appropriate amount of the test product was weighed and put into a glass bottle;
b. 70% volume of vehicle (0.5% (w/v) methyl cellulose 0.5% (v/v) Tween 80 aqueous solution) was added;
c. The preparation was stirred until it was visually homogeneous, and subjected to ultrasound in water bath as needed;
e. Make up the remaining volume of 0.5% methylcellulose+0.5% Tween 80, and the mixture was stirred until being visually homogeneous.
Animals in groups 1 and 2 were administrated 5 mg/mL and 30 mg/mL compounds by single gavage, with a dose volume of 10 mL/kg.
The body weight of the animals was weighed before administration, and the administration volume was calculated based on the body weight.
Whole blood samples (30 μL) were collected at the prescribed time (0.25, 0.5, 1, 2, 4, 6, 8, 24 h) through saphenous vein blood collection, and the actual blood collection time was recorded in the test record. […]

- Tlast: 24.0 h
Compound: COc1cc(OC)c(Cl)c(-c2nc(-c3nc(-c4cn(C)nc4C)cnc3N)cn(C)c2=O)c1
